Data as given in PubChem BioAssay AID1508612.

Experiment: passive permeability, PAMPA, ADME assay (AID 1508612)
Details: pH 7.4, 30.0 min, 50.0 µM

| Structure (SMILES) | Papp [×10⁻⁶ cm/s] |
| --- | --- |
| CC(=O)c1c(C)[nH]c(C(=O)Nc2ccc(C)c(S(=O)(=O)Nc3ccc(Br)cc3)c2)c1C | 108 |
| CC(C)(C)c1ccc(C(=O)Nc2cn3cc(-n4ccnc4)ccc3n2)cc1 | 952 |
| Cn1cc(Br)c(C2N=C(Nc3nc4ccccc4o3)NC3=C2C(=O)CCC3)n1 (configuration not stated) | > 1000 |
| Cc1ccc(-c2c(CN3CCN(c4cccc(C(F)(F)F)c4)CC3)csc2C)cc1 | < 1 |
| COc1c2c(c3c(c1CCC(=O)O)OC(C)(C)C=C3)OC(C)(C)C=C2 | 43.9 |
| COc1ccc(-c2[nH]nc3ncc(-c4ccc(CO)cc4)nc23)cc1F | 353 |
| CCC(CC)c1cc([C@H]2CN3CC[C@H]2C[C@@H]3CNS(=O)(=O)c2cccs2)nc(-c2ccncc2)n1 | > 1000 |
| Cc1nc2c(-c3ccccc3)cnn2c(N)c1-c1ccccc1 | 207 |
| Cn1nnnc1Sc1ncnc2scc(-c3ccccc3F)c12 | 338 |
| CC(Nc1nc(N2CCN(S(C)(=O)=O)CC2)nc2ccccc12)c1ccccc1 (configuration not stated) | > 1000 |
| CC(C)(C)NS(=O)(=O)c1ccc(-c2ccc3[nH]nc(N)c3c2)cc1 | 564 |
| CCN(c1cc(C#CCN2CCOCC2)cc(C(=O)NCc2c(C)cc(C)[nH]c2=O)c1C)C1CCC(N(C)CCOC)CC1 (configuration not stated) | 6.74 |
| C=C1[C@@H](C)C2[C@H](Cc3ccccc3)NC(=O)[C@@]23C(/C=C/C[C@H](C)C[C@@](C)(O)/C=C/[C@@H]3OC(C)=O)[C@@H]1O (some centres not stated) | 50 |
| COc1cc(C2c3cc(O)c(OC)cc3CC3C(=O)OCC32)ccc1O (configuration not stated) | 129 |
| COc1cc(C2CC(=O)Nc3cc4c(cc32)OCCO4)cc(Br)c1OC (configuration not stated) | 376 |
| O=C(Nc1ccc(S(=O)(=O)Nc2nccs2)cc1)c1cc(-c2ccccc2)nc2ccccc12 | 6.3 |
| Cn1cc(-c2nc(Nc3ccc(F)c(F)c3)c3ccccc3n2)cn1 | 315 |
| Cc1cc(Nc2ccc(Br)c(C)c2)n2nc(C)nc2n1 | 874 |
| Nc1ncnc2c1ncn2[C@H]1O[C@@H](CO)[C@@H](O)[C@H]1N | 2.99 |
| CCCc1cc(=O)oc2c3c(c4c(c12)OC(C)(C)C=C4)OC(C)C(C)C3O (configuration not stated) | > 1000 |
| COc1cccc(-c2nc(-c3cc4cc(OC)ccc4[nH]c3=O)no2)c1 | > 1000 |
| c1ccc(-c2ccc(CNc3nc(-c4ccccn4)nnc3-c3ccccc3)cc2)cc1 | > 1000 |
| COc1ccccc1N1CCN(c2ccc3cc(S(=O)(=O)N4CCCCC4)ccc3n2)CC1 | > 1000 |

| Structure (SMILES) | Papp [×10⁻⁶ cm/s] |
| --- | --- |
| Cc1ccccc1-c1nc(NCc2ccc(-c3cccnc3)cc2)c2ccccc2n1 | 547 |
| NC(=O)C1CCN(c2nc(-c3cccs3)cs2)CC1 | 195 |
| Cc1ccc(S(=O)(=O)Nc2cnccc2C(=O)Nc2nc(-c3cccnc3)cs2)cc1 | 104 |
| c1ccc2c(Nc3nccs3)nc(-c3ccncc3)nc2c1 | 150 |
| COc1ccc(OC)c(-n2c3c(cc(-c4nc(-c5ccc(Cl)cc5)cs4)c2=O)C(=O)CC(C)(C)C3)c1 | 216 |
| Cn1nnnc1Sc1ncnc2scc(-c3cccc(S(C)(=O)=O)c3)c12 | 93.9 |
| CC(=O)c1ccc(N2CCN(S(=O)(=O)c3ccc4c(c3)CC(=O)N4)CC2)cc1 | 429 |
| COc1ccc(-c2cn[nH]c2-c2ccc(OC)cc2)cc1 | > 1000 |
| COc1cccc(CNc2ccc(S(=O)(=O)Nc3nccs3)cc2)c1 | 342 |
| CSc1ccc(/C=C/c2nc3ccccc3n2S(=O)(=O)c2cccc(Cl)c2)cc1 | 911 |
| Fc1ccc(-c2ccc(Nc3nc(-c4ccncc4)nc4ccccc34)cc2F)c(Cl)c1 | 20.9 |
| COc1cc(-c2nc(-c3c(C)noc3C)cc3c2cc(C)n3CCN(C)C)ccn1 | > 1000 |
| Brc1ccc(-c2csc(N3CCC(c4nn[nH]n4)CC3)n2)cc1 | 141 |
| COc1ccccc1-c1[nH]nc2ncc(-c3ccc(C)cc3)nc12 | 76.2 |
| COC(=O)c1ccc2c(c1)nc1n2[C@@H](CNC(C)=O)COC1 | 4.45 |
| CS(=O)(=O)c1ccc(-c2nnc(/C=C/c3nnc(-c4ccc(C#N)cc4)o3)n2-c2ccccc2Cl)nc1 | > 1000 |
| Cc1c(CN(C)c2cc(C3CC(O)C3)nc(N)n2)[nH]c2ccccc12 (configuration not stated) | < 1 |
| CC1CCCCN1c1ncnc(N)c1[N+](=O)[O-] (configuration not stated) | 269 |
| Cc1ccc(S(=O)(=O)Nc2cnccc2C(=O)Nc2ccc(S(=O)(=O)Nc3nccs3)cc2)cc1 | < 1 |
| COc1cccc(CNc2ccc(S(=O)(=O)Nc3nc(C)cs3)cc2)c1O | 128 |
| O=[N+]([O-])c1ccc(CNc2ccc([S+](=O)([O-])Nc3nccs3)cc2)c(O)c1 | 1.2 |
| CCc1ccc(CNc2ccc3c(c2)ncn3C(C)(C)C)cc1 | > 1000 |
| COc1cc([C@@H]2c3cc4c(cc3[C@H](O)[C@H]3COC(=O)[C@H]23)OCO4)cc(OC)c1OC | 224 |

The next lines start with the values.

| Papp [×10⁻⁶ cm/s] | Structure (SMILES) |
| --- | --- |
| 577 | Cc1ccc(NC(=O)N2CCN(c3nc(N)nc4sc(-c5cccnc5)nc34)CC2)cc1 |
| 537 | Cc1ccc(S(=O)(=O)NCc2ccccc2)cc1 |
| > 1000 | O=C(NCC1CCN(Cc2cccc(Cl)c2)CC1)Nc1ccc(F)c(Cl)c1 |
| < 1 | NC(=O)C1CCN(c2nc(-c3ccc(OCc4ccccc4)cc3)cs2)CC1 |
| > 1000 | CC1Cc2cc(S(=O)(=O)NCc3ccc(N(C)C)cc3)ccc2N1C(=O)C1CCC1 (configuration not stated) |
| 255 | CCOP(=O)(Cc1ccc(C(=O)Nc2ccc(Br)cc2C#N)cc1)OCC |
| 32 | O=C(NCCCO)c1ccc(-c2ncc3cnc(-c4cccc(F)c4)cn23)cc1 |
| 652 | O=C(NC1CC1)c1nc(-c2cccnc2)c2ccccn12 |
| > 1000 | CC(=O)Nc1ccc(CN2CCc3nc(C(C)C)nc(-c4ccc(Cl)cc4)c3CC2)cc1 |
| 305 | Cn1cc(S(=O)(=O)N2CCCCCC2)cc1C(=O)Nc1ccc(Cl)c(C(F)(F)F)c1 |
| 40.3 | NC(=O)Nc1cc(-c2ccc(CN3CCOCC3)cc2)sc1C(N)=O |
| > 1000 | CN1CCN(CCCN2c3ccccc3Sc3ccc(S(=O)(=O)N(C)C)cc32)CC1 |
| > 1000 | COc1ccc2[nH]c(C[C@@H]3C[C@@H](C(C)C)[C@H](CNCc4ccccc4O)C=C3C)nc2n1 |
| 405 | COCCNC(=O)c1ccc(-c2ncc3cnc(-c4cccc(F)c4)cn23)cc1 |
| 49 | O=C1Nc2ccccc2/C1=C/c1cc(Cl)c(O)c(Cl)c1 |
| > 1000 | COc1ccc(CNC(=O)c2cnc3ccccc3n2)cc1 |
| < 1 | Cc1sc(NC(=O)Cc2ccc3c(c2)OCO3)nc1-c1ccc2c(c1)CCN2C |
| 182 | Clc1ccc2ncc(-c3cccc(NC4CNC4)n3)n2c1 |
| 246 | Cc1ccc(-c2nnc(N3CCC(C(N)=O)CC3)s2)cc1 |
| 93.9 | COc1cccc(CNC(=O)c2c(OC)cc(=O)n3c2CCN(C(=O)c2ccc(C)cc2C)CC3)c1 |
| > 1000 | CN(C(=O)CNC(=O)c1ccccc1OCC(=O)Nc1ccc(I)cc1)c1ccccc1 |

| Papp [×10⁻⁶ cm/s] | Structure (SMILES) |
| --- | --- |
| < 1 | NCC(=O)Nc1cccc(-c2nn3c(=O)cc(N4CCNCC4)nc3s2)c1 |
| 6.67 | CCCc1c(CC)c(=N)c2ccccc2n1C |
| 842 | OCc1ccc(-c2nn(Cc3ccccc3)c3ccccc23)o1 |
| > 1000 | CCN(CC)CCNC(=O)C1CCN(c2nn3cc(-c4ccc(F)cc4)nc3s2)CC1 |
| 716 | CNc1sc(-c2cccc3ccccc23)nc1C#N |
| 25 | CCOc1ccc(NC(=O)CSC2=Nc3ccccc3C3=NC(CC(=O)NCc4cccs4)C(=O)N23)cc1 (configuration not stated) |
| 613 | Nc1c(-c2ccccc2)cc[nH]c1=O |
| > 1000 | CCOc1cc2c(cc1OCC)CN(C(=O)c1cc3sccc3n1Cc1ccccc1)CC2 |
| 196 | COc1ccc(NC(=O)c2c(C)cccc2C)cc1[S+](=O)([O-])N(C)C |
| 390 | CC1=C(C(=O)Nc2ccccc2C)C(c2ccccc2Br)N=C(Nc2nc3ccccc3o2)N1 (configuration not stated) |
| 547 | CCc1ccc(C2C(C(=O)Nc3ccccc3OC)=C(C)Nc3c(C(=O)Nc4ccc(C)cc4)cnn32)cc1 (configuration not stated) |
| 896 | COC(=O)c1ccccc1C(=O)Nc1nc(-c2ccccc2)cs1 |
| > 1000 | COc1cccc(CNc2ccc(S(=O)(=O)Nc3ccccc3)cc2)c1O |
| > 1000 | CC(C)Nc1oc(-c2cccc3ccccc23)nc1C#N |
| > 1000 | NC(=O)C1CCN(c2nc(-c3ccc4c(c3)CCO4)cs2)CC1 |
| 79.5 | Oc1ccc(NCc2ccccc2OCc2ccccc2Cl)cc1 |
| 368 | CC(C)(O)Cn1c(NC(=O)c2ccc(-c3cn[nH]c3)s2)nc2cc(CN3CCOCC3)ccc21 |
| 157 | Cc1ccc(NC(=O)c2cc(-c3ccc[nH]3)n[nH]2)cc1F |
| 758 | O=C(NC1CC1)c1ccc(CSCc2ccccc2Cl)o1 |
| > 1000 | COc1ccc(-c2nc3ccccc3c(=O)n2Cc2ccccc2)cc1COc1ccc(NC(C)=O)cc1 |
| 340 | COc1cccc(C(=O)Nc2nc(-c3nnn(-c4cc(C)ccc4C)c3C)ns2)c1 |

| Papp [×10⁻⁶ cm/s] | Structure (SMILES) |
| --- | --- |
| 633 | Cn1cc(Cl)c(C2N=C(Nc3nc4ccccc4o3)NC3=C2C(=O)CCC3)n1 (configuration not stated) |
| > 1000 | Cc1ccc(OCCn2c(CCNC(=O)C3CCCCC3)nc3ccccc32)cc1 |
| > 1000 | Cc1c(Cl)cccc1-n1ncc(C(=O)Nc2ccc(Br)cc2F)c1C1CCNCC1 |
| 47.9 | Cc1cnc(NC(=O)c2ccc(-c3cccc([N+](=O)[O-])c3)o2)s1 |
| 412 | CN(C)CC(=O)NC1CCCc2c1cnn2-c1ccc(F)cc1F (configuration not stated) |
| 49.1 | CS(=O)(=O)c1cccc(-c2csc(N3CCC(C(N)=O)CC3)n2)c1 |
| > 1000 | NC1CCN(c2nc(-c3ccc(Br)cc3)cs2)CC1 |
| < 1 | CCOc1ccc(NC(=O)c2ccc(F)c(S(=O)(=O)N(CC)Cc3ccccc3)c2)cc1 |
| 938 | Nc1nc(N)c2c(OCC3CCN(Cc4ccccc4F)CC3)cccc2n1 |
| > 1000 | CCN1CCN(CCCOc2ccc(-c3ccccc3)cc2)CC1 |
| > 1000 | CCc1cccc(NC(=O)c2c(C)oc3nc(C)nc(N4CCCC4)c23)c1 |
| 37 | CC1=C(C(=O)Nc2nncs2)C(c2[nH]ncc2Cl)N=C(Nc2nc3ccccc3o2)N1 (configuration not stated) |
| 362 | CCCNC(=O)Nc1ccc(Oc2ncnc3cc(OC)c(OC)cc23)cc1Cl |
| 212 | COCCCOc1ccnc(CS(=O)c2nc3ccccc3[nH]2)c1C (configuration not stated) |
| < 1 | Cc1ccc(S(=O)(=O)Nc2ccc(C)cc2C(=O)Nc2nc(-c3ccccc3)cs2)cc1 |
| 34.9 | COc1ccc(C2(C(=O)N3CCC(n4cc(-c5nc(C)no5)nn4)CC3)CC2)cc1 |
| > 1000 | CCOC(=O)c1nn(-c2ccccc2)c(=O)c2c(N)scc12 |
| 489 | COc1ccnc(NC(=S)N2CCN(c3ccccc3C(F)(F)F)CC2)c1 |
| > 1000 | Cc1ccccc1C(=O)N1CCc2cc(-c3nc(NC(=O)Cc4ccccc4)sc3C)ccc21 |
